# Test results: patent publication US9539252B2, “Piperazine-substituted benzothiophene derivatives as antipsychotic agents” (OTSUKA PHARMACEUTICAL CO., LTD., priority 2011, dated 2017)
# Assay: Solubility in oil (sesame oil, benzyl benzoate), visual observation
# Settings: benzyl benzoate, oil or lipid, thermodynamic from solid
row,SMILES,solubility [mg/mL]
1,"O=C(NCc1ccccc1)OCN1C(=O)CCc2ccc(OCCCCN3CCN(c4cccc5sccc45)CC3)cc21 [Example 80, N-benzylcarbamic acid 7-[4-(4-benzo[b]thiophen-4-ylpiperazin-1-yl)butoxy]-2-oxo-3,4-dihydro-2H-quinolin-1-ylmethyl ester]",> 100
2,"O=C(OCN1C(=O)CCc2ccc(OCCCCN3CCN(c4cccc5sccc45)CC3)cc21)c1ccccc1 [Example 11, benzoic acid 7-[4-(4-benzo[b]thiophen-4-ylpiperazin-1-yl)butoxy]-2-oxo-3,4-dihydro-2H-quinolin-1-ylmethyl ester]",> 100
3,"CCCCNC(=O)OCn1c(=O)ccc2ccc(OCCCCN3CCN(c4cccc5sccc45)CC3)cc21 [Example 35, N-butylcarbamic acid 7-[4-(4-benzo[b]thiophen-4-ylpiperazin-1-yl)butoxy]-2-oxo-2H-quinolin-1-ylmethyl ester]",> 100
4,"O=C(OCn1c(=O)ccc2ccc(OCCCCN3CCN(c4cccc5sccc45)CC3)cc21)C1CCCCCC1 [Example 119, cycloheptanecarboxylic acid 7-[4-(4-benzo[b]thiophen-4-ylpiperazin-1-yl)butoxy]-2-oxo-2H-quinolin-1-ylmethyl ester]",> 100
5,"O=C(OCN1C(=O)CCc2ccc(OCCCCN3CCN(c4cccc5sccc45)CC3)cc21)C1CCCCC1 [Example 14, cyclohexanecarboxylic acid 7-[4-(4-benzo[b]thiophen-4-ylpiperazin-1-yl)butoxy]-2-oxo-3,4-dihydro-2H-quinolin-1-ylmethyl ester]",> 100
6,"O=C(NC1CCCCC1)OCN1C(=O)CCc2ccc(OCCCCN3CCN(c4cccc5sccc45)CC3)cc21 [Example 83, N-cyclohexylcarbamic acid 7-[4-(4-benzo[b]thiophen-4-ylpiperazin-1-yl)butoxy]-2-oxo-3,4-dihydro-2H-quinolin-1-ylmethyl ester]",> 100
7,"O=C(NCCc1ccccc1)OCn1c(=O)ccc2ccc(OCCCCN3CCN(c4cccc5sccc45)CC3)cc21 [Example 116, N-phenethylcarbamic acid 7-[4-(4-75 benzo[b]thiophen-4-ylpiperazin-1-yl)butoxy]-2-oxo-2H-quinolin-1-ylmethyl ester]",> 100
8,"CCCCCCCCCCCCCCCCCCN(C)C(=O)OCN1C(=O)CCc2ccc(OCCCCN3CCN(c4cccc5sccc45)CC3)cc21 [Example 79, N-methyl-N-octadecylcarbamic acid 7-[4-(4-benzo[b]thiophen-4-ylpiperazin-1-yl)butoxy]-2-oxo-3,4-dihydro-2H-quinolin-1-ylmethyl ester]",> 100
9,"CN(C)C(=O)OCN1C(=O)CCc2ccc(OCCCCN3CCN(c4cccc5sccc45)CC3)cc21 [Example 47, N,N-dimethylcarbamic acid 7-[4-(4-benzo[b]thiophen-4-ylpiperazin-1-yl)butoxy]-2-oxo-3,4-dihydro-2H-quinolin-1-ylmethyl ester]",> 100
10,"CCCCN(C)C(=O)OCN1C(=O)CCc2ccc(OCCCCN3CCN(c4cccc5sccc45)CC3)cc21 [Example 16, N-butyl-N-methylcarbamic acid 7-[4-(4-benzo[b]thiophen-4-ylpiperazin-1-yl)butoxy]-2-oxo-3,4-dihydro-2H-quinolin-1-ylmethyl ester]",> 100
11,"O=C(OCN1C(=O)CCc2ccc(OCCCCN3CCN(c4cccc5sccc45)CC3)cc21)C1CCCCCC1 [Example 106, cycloheptanecarboxylic acid 7-[4-(4-benzo[b]thiophen-4-ylpiperazin-1-yl)butoxy]-2-oxo-3,4-dihydro-2H-quinolin-1-ylmethyl ester]",> 100
12,"O=C(OCn1c(=O)ccc2ccc(OCCCCN3CCN(c4cccc5sccc45)CC3)cc21)N1CCC(F)(F)CC1 [Example 123, 4,4-difluoropiperidine-1-carboxylic acid 7-[4-(4-benzo[b]thiophen-4-ylpiperazin-1-yl)butoxy]-2-oxo-2H-quinolin-1-ylmethyl ester]",> 100
13,"O=C(NCC1CCCCC1)OCn1c(=O)ccc2ccc(OCCCCN3CCN(c4cccc5sccc45)CC3)cc21 [Example 63, N-cyclohexylmethylcarbamic acid 7-[4-(4-benzo[b]thiophen-4-ylpiperazin-1-yl)butoxy]-2-oxo-2H-quinolin-1-ylmethyl ester]",> 100
14,"CCCCOCCOCC(=O)OCN1C(=O)CCc2ccc(OCCCCN3CCN(c4cccc5sccc45)CC3)cc21 [Example 100, (2-butoxyethoxy)acetic acid 7-[4-(4-benzo[b]thiophen-4-ylpiperazin-1-yl)butoxy]-2-oxo-3,4-dihydro-2H-quinolin-1-ylmethyl ester]",> 100
15,"CCCCCCCCCCCC(=O)OCN1C(=O)CCc2ccc(OCCCCN3CCN(c4cccc5sccc45)CC3)cc21 [Example 21, dodecanoic acid 7-[4-(4-benzo[b]thiophen-4-ylpiperazin-1-yl)butoxy]-2-oxo-3,4-dihydro-2H-quinolin-1-ylmethyl ester]",> 100
16,"CCCCCCCCCCCCCCCCOC(=O)OCn1c(=O)ccc2ccc(OCCCCN3CCN(c4cccc5sccc45)CC3)cc21 [Example 180, carbonic acid 7-[4-(4-benzo[b]thiophen-4-ylpiperazin-1-yl)butoxy]-2-oxo-2H-quinolin-1-ylmethyl ester hexadecyl ester]",> 100

row,SMILES,solubility [mg/mL]
1,"CCCCCCOC(=O)Oc1ccc2ccc(OCCCCN3CCN(c4cccc5sccc45)CC3)cc2n1 [Example 381, 7-[4-(4-benzo[b]thiophen-4-yl-piperazin-1-yl)-butoxy]-quinolin-2-yl hexyl carbonate]",> 100
2,"CCCCCCCCCOC(=O)OCn1c(=O)ccc2ccc(OCCCCN3CCN(c4cccc5sccc45)CC3)cc21 [Example 177, carbonic acid 7-[4-(4-benzo[b]thiophen-4-ylpiperazin-1-yl)butoxy]-2-oxo-2H-quinolin-1-ylmethyl ester nonyl ester]",> 100
3,"O=C(OCN1C(=O)CCc2ccc(OCCCCN3CCN(c4cccc5sccc45)CC3)cc21)N1CCCCC1 [Example 9, piperidine-1-carboxylic acid 7-[4-(4-benzo[b]thiophen-4-ylpiperazin-1-yl)butoxy]-2-oxo-3,4-dihydro-2H-quinolin-1-ylmethyl ester]",> 100
4,"CCCC(=O)OCn1c(=O)ccc2ccc(OCCCCN3CCN(c4cccc5sccc45)CC3)cc21 [Example 20, butyric acid 7-[4-(4-benzo[b]thiophen-4-ylpiperazin-1-yl)butoxy]-2-oxo-2H-quinolin-1-ylmethyl ester]",> 100
5,"O=C(OCn1c(=O)ccc2ccc(OCCCCN3CCN(c4cccc5sccc45)CC3)cc21)C1CCOCC1 [Example 130, tetrahydropyran-4-carboxylic acid 7-[4-(4-benzo[b]thiophen-4-ylpiperazin-1-yl)butoxy]-2-oxo-2H-quinolin-1-ylmethyl ester]",> 100
6,"CCCCCC(=O)OCN1C(=O)CCc2ccc(OCCCCN3CCN(c4cccc5sccc45)CC3)cc21 [Example 70, hexanoic acid 7-[4-(4-benzo[b]thiophen-4-ylpiperazin-1-yl)butoxy]-2-oxo-3,4-dihydro-2H-quinolin-1-ylmethyl ester]",> 100
7,"CCCCCCCCCCCC(=O)OCn1c(=O)ccc2ccc(OCCCCN3CCN(c4cccc5sccc45)CC3)cc21 [Example 22, dodecanoic acid 7-[4-(4-benzo[b]thiophen-4-ylpiperazin-1-yl)butoxy]-2-oxo-2H-quinolin-1-ylmethyl ester]",> 100
8,"CCCC(=O)OCN1C(=O)CCc2ccc(OCCCCN3CCN(c4cccc5sccc45)CC3)cc21 [Example 19, butyric acid 7-[4-(4-benzo[b]thiophen-4-ylpiperazin-1-yl)butoxy]-2-oxo-3,4-dihydro-2H-quinolin-1-ylmethyl ester]",> 100
9,"CCCCCCCCCC(=O)OCN1C(=O)CCc2ccc(OCCCCN3CCN(c4cccc5sccc45)CC3)cc21 [Example 68, decanoic acid 7-[4-(4-benzo[b]thiophen-4-ylpiperazin-1-yl)butoxy]-2-oxo-3,4-dihydro-2H-quinolin-1-ylmethyl ester]",> 100
10,"O=C(NC1CCCCC1)OCn1c(=O)ccc2ccc(OCCCCN3CCN(c4cccc5sccc45)CC3)cc21 [Example 71, N-cyclohexylcarbamic acid 7-[4-(4-benzo[b]thiophen-4-ylpiperazin-1-yl)butoxy]-2-oxo-2H-quinolin-1-ylmethyl ester]",> 100
11,"O=C(OCN1C(=O)CCc2ccc(OCCCCN3CCN(c4cccc5sccc45)CC3)cc21)C1CCOCC1 [Example 120, tetrahydropyran-4-carboxylic acid 7-[4-(4-benzo[b]thiophen-4-ylpiperazin-1-yl)butoxy]-2-oxo-3,4-dihydro-2H-quinolin-1-ylmethyl ester]",> 100
12,"CCCCCCOC(=O)OCOc1ccc2ccc(OCCCCN3CCN(c4cccc5sccc45)CC3)cc2n1 [Example 373, 7-[4-(4-benzo[b]thiophen-4-yl-piperazin-1-yl)-butoxy]-quinolin-2-yloxymethylhexyl carbonate]",> 100
13,O=C(NCc1ccco1)OCn1c(=O)ccc2ccc(OCCCCN3CCN(c4cccc5sccc45)CC3)cc21 [Example 110],> 100
14,"CC(C)(C)OC(=O)CC(=O)OCN1C(=O)CCc2ccc(OCCCCN3CCN(c4cccc5sccc45)CC3)cc21 [Example 121, malonic acid 7-[4-(4-benzo[b]thiophen-4-ylpiperazin-1-yl)butoxy]-2-oxo-3,4-dihydro-2H-quinolin-1-ylmethyl ester tert-butyl ester]",> 100
15,"O=C(OCN1C(=O)CCc2ccc(OCCCCN3CCN(c4cccc5sccc45)CC3)cc21)OCC(F)(F)F [Example 147, carbonic acid 7-[4-(4-benzo[b]thiophen-4-ylpiperazin-1-yl)butoxy]-2-oxo-3,4-dihydro-2H-quinolin-1-ylmethyl ester 2,2,2-trifluoro-ethyl ester]",> 100

# Same assay, conditions: sesame oil, oil or lipid, thermodynamic from solid
row,SMILES,solubility [mg/mL]
1,"CCCCCCCCCCCCCCCCCCN(C)C(=O)OCN1C(=O)CCc2ccc(OCCCCN3CCN(c4cccc5sccc45)CC3)cc21 [Example 79, N-methyl-N-octadecylcarbamic acid 7-[4-(4-benzo[b]thiophen-4-ylpiperazin-1-yl)butoxy]-2-oxo-3,4-dihydro-2H-quinolin-1-ylmethyl ester]",> 100
2,"CCCCCCCCCCCC(=O)OCN1C(=O)CCc2ccc(OCCCCN3CCN(c4cccc5sccc45)CC3)cc21 [Example 21, dodecanoic acid 7-[4-(4-benzo[b]thiophen-4-ylpiperazin-1-yl)butoxy]-2-oxo-3,4-dihydro-2H-quinolin-1-ylmethyl ester]",> 100
3,"CCCCCCCCCCCCCCCCOC(=O)OCn1c(=O)ccc2ccc(OCCCCN3CCN(c4cccc5sccc45)CC3)cc21 [Example 180, carbonic acid 7-[4-(4-benzo[b]thiophen-4-ylpiperazin-1-yl)butoxy]-2-oxo-2H-quinolin-1-ylmethyl ester hexadecyl ester]",> 100
4,"CCCCCCOC(=O)Oc1ccc2ccc(OCCCCN3CCN(c4cccc5sccc45)CC3)cc2n1 [Example 381, 7-[4-(4-benzo[b]thiophen-4-yl-piperazin-1-yl)-butoxy]-quinolin-2-yl hexyl carbonate]",> 100
5,"CCCCCCCCCOC(=O)OCn1c(=O)ccc2ccc(OCCCCN3CCN(c4cccc5sccc45)CC3)cc21 [Example 177, carbonic acid 7-[4-(4-benzo[b]thiophen-4-ylpiperazin-1-yl)butoxy]-2-oxo-2H-quinolin-1-ylmethyl ester nonyl ester]",> 100
6,"CCCCCCOC(=O)OCOc1ccc2ccc(OCCCCN3CCN(c4cccc5sccc45)CC3)cc2n1 [Example 373, 7-[4-(4-benzo[b]thiophen-4-yl-piperazin-1-yl)-butoxy]-quinolin-2-yloxymethylhexyl carbonate]",> 100
